Laboratory results published in US6887896B1, “7-[(7-Alkoxy)-chrom-3-en-6-yl]-heptatrienoic acid and 7-[(3-alkoxy)-5,6-dihydronaphthalen-2-yl]-heptatrienoic acid derivatives having serum glucose reducing activity” (Allergan, Inc., priority 2003, dated 2005).

Tests used:
RARβ [1] = biological target: T1, RARβ (Homo sapiens, UniProt P10826); test: chimeric receptor transactivation assay, RARβ; type: cell-based; conditions: for EC50: chimeric receptor transactivation, read-out: RAR Trans. EC50 β; for Emax: percentage compared to the standard compound, read-out: RAR Trans. efficacy (number in parentheses) β
T1 sequence (P10826 183-417 limits assumed): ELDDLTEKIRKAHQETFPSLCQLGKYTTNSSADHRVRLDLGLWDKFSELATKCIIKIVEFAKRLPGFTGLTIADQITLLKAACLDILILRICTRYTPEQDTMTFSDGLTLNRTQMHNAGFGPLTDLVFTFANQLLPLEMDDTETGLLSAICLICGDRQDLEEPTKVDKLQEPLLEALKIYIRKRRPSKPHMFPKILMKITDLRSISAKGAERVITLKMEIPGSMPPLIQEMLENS
Excerpt: (§1) Specifically, one such assay is a chimeric receptor transactivation assay which tests for agonist-like activity in the R RAPE and RAR7 receptor subtypes, and which is based on work published by Feigner, P. L. and Holm, M (1989) Focus, 112 is described in detail in U.S. Pat. No. 5,455,265. The specification of U.S. Pat. No. 5,455,265 is hereby expressly incorporated by reference. A holoreceptor transactivation assay and a ligand binding assay which measure the antagonist/agonist like activity of the compounds of the invention, or their ability to bind to the several retinoid receptor subtypes, respectively, are described in published PCT Application No. WO WO93/11755 (particularly on pages 30-33 and 37-41) published on Jun. 24, 1993, the specification of which is also incorporated herein by reference. A detailed experimental procedure for holoreceptor transactivations has been described by Heyman et al. Cell 68, 397-406, (1992); Allegretto et al. J. Biol. Chem. 268, 26625-26633, and Mangelsdorf et al. The Retinoids: Biology, Chemistry and Medicine, pp 319-349, Raven Press Ltd., New York, which are expressly incorporated herein by reference. The results obtained in this assay are expressed in EC50 numbers, as they are also in the chimeric receptor transactivation assay. The results of the ligand binding assay are expressed in Ki numbers. (See Cheng et al. Biochemical Pharmacology Vol. 22 pp 3099-3108, expressly incorporated herein by reference.)
(§2) Efficacy in a transactivation assay is expressed as a percentage of the maximum potency attained by the compound compared to a standard which, in this case, is the compound named (2E,4E,1′S,2′S)-3-methyl-5-[2′-methyl-2′-(5,5,8,8-tetramethyl-5,6,7,8-tetrahydro-naphthalen-2-yl)-cyclopropyl]-penta-2,4-dienoic acid. This standard compound is described in U.S. Pat. No. 6,114,533.
(§3) The specification of this application for patent is organized in several sections in accordance with structural Formulas A through F each of which discloses a group of preferred compounds within the scope of the invention. Tables that disclose the activity of certain exemplary compounds of the invention in the above-described RXR receptor transactivation and binding assays are found in the corresponding sections. […] The transactivation data pertaining to the activation of RXR receptors were obtained in the holoreceptor assay.
(§4) Generally speaking, in the tables disclosing the results of transactivation and binding assays the numbers in parentheses indicate efficacy as a percentage compared to the standard compound, (2E,4E,1′S,2′S)-3-methyl-5-[2′-methyl-2′-(5,5,8,8-tetramethyl-5,6,7,8-tetrahydro-naphthalen-2-yl)cyclopropyl]-penta-2,4-dienoic acid and the other numbers indicate the measured EC50 and K; in nanomolar concentration.

RARβ [2] = biological target: T2, RARβ (Homo sapiens, UniProt P10826); test: ligand binding assay, RARβ; conditions: for Ki: read-out: RAR Bind. Ki β; for Kd: Table 9 (Formula F), read-out: RAR β Kd
T2 sequence (P10826 1-455): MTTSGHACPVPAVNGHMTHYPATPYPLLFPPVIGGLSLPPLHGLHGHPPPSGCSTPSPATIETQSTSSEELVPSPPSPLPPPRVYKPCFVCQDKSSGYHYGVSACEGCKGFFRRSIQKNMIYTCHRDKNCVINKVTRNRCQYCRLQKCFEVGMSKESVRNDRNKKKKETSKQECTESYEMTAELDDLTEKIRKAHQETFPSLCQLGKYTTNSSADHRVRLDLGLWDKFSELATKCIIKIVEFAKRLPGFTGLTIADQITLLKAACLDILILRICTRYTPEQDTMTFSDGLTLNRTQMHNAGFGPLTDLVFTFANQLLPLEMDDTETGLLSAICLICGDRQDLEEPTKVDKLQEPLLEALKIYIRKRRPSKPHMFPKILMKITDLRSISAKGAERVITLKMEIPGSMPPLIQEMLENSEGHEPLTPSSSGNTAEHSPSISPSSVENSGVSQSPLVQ
Excerpt: as §1, §4

RARγ = biological target: T3, RARγ (Homo sapiens, UniProt P13631); test: ligand binding assay, RARγ; conditions: for Ki: read-out: RAR Bind. Ki γ; for Kd: Table 9 (Formula F), read-out: RAR γ Kd
T3 sequence (P13631 1-454): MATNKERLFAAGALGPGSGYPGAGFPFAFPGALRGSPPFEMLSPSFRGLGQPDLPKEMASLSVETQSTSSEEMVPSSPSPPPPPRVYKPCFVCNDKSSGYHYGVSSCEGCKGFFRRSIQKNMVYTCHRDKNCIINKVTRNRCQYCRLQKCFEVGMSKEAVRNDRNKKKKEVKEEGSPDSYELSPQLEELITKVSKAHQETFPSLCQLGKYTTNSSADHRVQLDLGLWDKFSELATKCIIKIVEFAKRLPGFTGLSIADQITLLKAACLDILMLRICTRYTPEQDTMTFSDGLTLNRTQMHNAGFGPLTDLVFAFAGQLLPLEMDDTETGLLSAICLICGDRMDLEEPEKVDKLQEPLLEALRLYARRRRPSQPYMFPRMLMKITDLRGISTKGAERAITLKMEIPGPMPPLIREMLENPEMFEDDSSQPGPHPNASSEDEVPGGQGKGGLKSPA
Excerpt: as §1, §4

RXRγ = biological target: T4, RXRγ (UniProt P28705); test: holoreceptor transactivation assay, RXRγ; type: cell-based; conditions: for EC50: holoreceptor transactivation, read-out: RXR Trans. EC50 γ; for RXR Trans. efficacy (number in parentheses) γ: percentage compared to the standard compound
T4 sequence (P28705 1-463): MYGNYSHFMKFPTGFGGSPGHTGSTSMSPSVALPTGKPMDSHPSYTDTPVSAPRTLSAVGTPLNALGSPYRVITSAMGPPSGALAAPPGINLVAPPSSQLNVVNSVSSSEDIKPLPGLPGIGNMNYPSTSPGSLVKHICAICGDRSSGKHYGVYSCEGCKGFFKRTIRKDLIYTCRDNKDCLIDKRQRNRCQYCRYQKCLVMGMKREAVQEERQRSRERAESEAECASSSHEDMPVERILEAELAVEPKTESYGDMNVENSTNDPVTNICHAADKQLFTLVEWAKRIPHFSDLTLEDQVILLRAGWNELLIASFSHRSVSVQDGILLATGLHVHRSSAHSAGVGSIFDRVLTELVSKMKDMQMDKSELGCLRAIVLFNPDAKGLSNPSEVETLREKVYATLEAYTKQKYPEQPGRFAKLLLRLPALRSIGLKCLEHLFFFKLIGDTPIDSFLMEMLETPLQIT
Excerpt: as §1, §2, §3, §4

SMILES | EC50 (RARβ [1]) [nM] | Emax (RARβ [1]) [%] | Ki (RARβ [2]) [nM] | Ki (RARγ) [nM] | EC50 (RXRγ) [nM] | RXR Trans. efficacy (number in parentheses) γ (RXRγ) | Kd (RARβ [2]) [nM] | Kd (RARγ) [nM]
CCCOc1cc2c(cc1\C(C)=C(F)/C=C/C(C)=C/C(=O)O)C(C(C)C)=CCC2(C)C [Compound A-80] | 80 | 13 | 552 | 6400 | – | – | – | –
CCOc1c(\C(C)=C(F)/C=C/C(C)=C/C(=O)O)cc2c(c1Br)C(C)(C)CC=C2C(C)C [Compound A-169, (2E,4E,6E)-7-(4-Bromo-3-ethoxy-8-isopropyl-5,5-dimethyl-5,6-dihydro-naphthalen-2-yl)-6-fluoro-3-methyl-octa-2.4,6-trienoic acid] | – | – | – | – | 0.6 | 71% | 252 | 1000
CCOc1c(\C(CC)=C(F)/C=C/C(C)=C/C(=O)O)cc2c(c1Cl)OC(C)(C)C=C2C(C)C [Compound 173] | – | – | 431 | 2400 | 6 | 10% | – | –
CCC1=CC(C)(C)Oc2cc(OC)c(\C(C)=C(F)/C=C/C(C)=C/C(=O)O)cc21 [Compound 120, 7-(4Ethyl-7-methoxy-2,2-dimethyl-2H-chromen-6-yl)-6-fluoro-3-methyl-octa-2E,4E,6E-trienoic acid] | – | – | 8100 | > 10000 | > 10000 | – | – | –
CCOc1c(\C(C)=C(F)/C=C/C(C)=C/C(=O)O)cc2c(c1Cl)C(C)(C)CC=C2C(C)C [Compound A-177, (2E,4E,6E)-7-(4-Chloro-3-ethoxy-8-isopropyl-5,5-dimethyl-5,6-dihydronaphthalen-2-yl)6-fluoro-3-methyl-octa-2,4,6-trienoic acid] | – | – | – | – | 0.2 | 73% | 443 | 1200
CCOc1cc2c(cc1\C(CC)=C(F)/C=C/C(C)=C/C(=O)O)C=CCC2(C)C [Compound A-77] | – | – | 371 | – | 41 | (73) % | – | –
CCOc1c(\C(C)=C(F)/C=C/C(C)=C/C(=O)O)cc2c(c1Cl)OC(C)(C)C=C2C(C)C [Compound 172, 7-(8-Chloro-4-isopropyl-7-ethoxy-2,2-dimethyl-2H-chromen-6-yl)-6-fluoro-3-methyl-octa-2E,4E,6E-trienoic acid] | – | – | 442 | 1400 | 10 | 46% | – | –
COc1c(\C(C)=C(F)/C=C/C(C)=C/C(=O)O)cc2c(c1Cl)OC(C)(C)C=C2C(C)C [Compound 170, 7-(8-Chloro-4-isopropyl-7-methoxy-2,2-dimethyl-2H-chromen-6-yl)-6-fluoro-3-methyl-octa-2E,4E,6E-trienoic acid] | – | – | 2300 | 5300 | 0.2 | 109% | – | –
COc1cc2c(cc1\C(C)=C(F)/C=C/C(C)=C/C(=O)O)C(C(C)(C)C)=CC(C)(C)O2 [Compound 122, 7-(4-tert-Butyl-7-methoxy-2,2-dimethyl-2H-chromen-6-yl)-6-fluoro-3-methyl-octa-2E,4E,6E-trienoic acid] | – | – | 1400 | 3900 | 9 | 52% | – | –
CCOc1cc2c(cc1\C(C)=C(F)/C=C/C(C)=C/C(=O)O)C(C(C)C)=CCC2(C)C [Compound A-79, (2E,4E,6E)-6-Fluoro-3-(4,4-dimethylethoxy-1-isopropyl-3,4-dihydronaphthalen-7-yl)-3-methyl-2.4,6-octa-trienoic acid] | 829 | 62 | – | 3500 | 2 | 59% | – | –
CC(/C=C/C(F)=C(/C)c1cc2c(c(Br)c1OC(C)C)C(C)(C)CC=C2C(C)C)=C\C(=O)O [Compound A-172, (2E,4E,6E)-7-(4-Bromo-3-isopropoxy-8-isopropyl-5,5-dimethyl-5,6-dihydro-naphthalen-2-yl)-6-fluoro-3-methyl-octa-2,4,6-trienoic acid] | – | – | – | – | 18 | 12% | 212 | 834
CCOc1c(\C(C)=C(F)/C=C/C(C)=C/C(=O)O)cc2c(c1Br)C(C)(C)CC=C2C(C)(C)C [Compound A-174, (2E,4E,6E)-7-(4-Bromo-8-tert-butyl-3-ethoxy-5,5-dimethyl-5,6-dihydro-naphthalen-2-yl)-6-fluoro-3-methyl-octa-2,4,6-trienoic acid] | – | – | – | – | 2 | 12% | 517 | 1600
CCOc1c(\C(=C/C=C/C(C)=C/C(=O)O)CC)cc2c(c1Cl)OC(C)(C)C=C2C(C)C [Compound 51] | – | – | 1400 | 4900 | 22 | 13% | – | –
CCOc1cc2c(cc1\C(C)=C(F)/C=C/C(C)=C/C(=O)O)C(CC)=CC(C)(C)O2 [Compound 123, 7-(7-Ethoxy-4-ethyl-2,2-dimethyl-2H-chromen-6-yl)-6-fluoro-3-methyl-octa-2E,4E,6E-trienoic acid] | – | – | > 10000 | > 10000 | > 1000 | – | – | –
CCOc1c(\C(C)=C/C=C/C(C)=C/C(=O)O)cc2c(c1Cl)OC(C)(C)C=C2C(C)C [Compound 50, 7-(8-Chloro-4-isopropyl-7-ethoxy-2,2-dimethyl-2H-chromen-6-yl)-3-methyl-octa-2E,4E,6Z-trienoic acid] | – | – | 1300 | 5900 | 5 | 47% | – | –
CC(/C=C/C(F)=C(/C)c1cc2c(c(Cl)c1OC(C)C)OC(C)(C)C=C2C(C)C)=C\C(=O)O [Compound 174] | – | – | 1300 | 3400 | 114 | 6% | – | –
